Among the test systems are NCI/ADR-RES; 786-0; SK-MEL-28; COLO 205; SK-OV-3; SF-539; Malme-3M; K562; MDA-MB-435; UACC-62; NCI-H522; TK-10; HOP-62; RPMI-8226; HL-60; CCRF-CEM; SR; HCT-15; UACC-257; RXF 393.
Experiment in all cases: NCI-60 cell line screen, 48 h

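In this assay, cells in 96-well plates receive the compound at five concentrations for 48 hours. Endpoints are linearly interpolated between the surrounding concentrations. GI50: concentration for 50% inhibition of growth.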 The source made the active and inactive calls. Rule as the data show it: active = GI50 up to about 1.1 µM and inactive = higher.

As to `Cc1ccc(CC2(OCCN(C)C)CCC(C(C)(C)C)CC2)cc1` (stereo unspecified), the GI50 with NCI/ADR-RES is 6.73 µM (inactive); in the assay on 786-0 it was 1.99 µM (inactive); in the assay on SK-MEL-28, 1.88 µM (inactive); in the assay with COLO 205 it was 2.05 µM (inactive); in the assay with SK-OV-3, 8.17 µM (inactive); in the assay on SF-539 it was 1.81 µM (inactive). Moreover, the GI50 in the assay on Malme-3M is 1.63 µM (inactive); in the assay on K562, 1.71 µM (inactive); in the assay on MDA-MB-435, 2.37 µM (inactive); with UACC-62 it was 2.15 µM (inactive); in the assay on NCI-H522, 3.53 µM (inactive); in the assay on TK-10, 4.47 µM (inactive). Moreover, the GI50 in the assay with HOP-62 was 3.01 µM (inactive); in the assay on RPMI-8226 it was 1.84 µM (inactive); in the assay with HL-60 it was 0.767 µM (active); in the assay on CCRF-CEM, 2.41 µM (inactive); with SR, 2.04 µM (inactive); in the assay on HCT-15, 3.86 µM. Besides, the GI50 with UACC-257 was 2.65 µM (inactive).

As for `CCSc1cc(C(=O)OC)c2n(c1=O)CCCC2`, the GI50 with RXF 393, in the assay with NCI/ADR-RES, in the assay on 786-0, in the assay on SK-MEL-28, in the assay on COLO 205 and with SK-OV-3 was > 100 µM (inactive) throughout. The GI50 in the assay on SF-539, in the assay on Malme-3M, in the assay on MDA-MB-435, in the assay on UACC-62, in the assay on NCI-H522 and in the assay with TK-10 was > 100 µM (inactive) in each case. The GI50 in the assay with HOP-62 is > 100 µM (inactive); with HL-60, > 100 µM (inactive); in the assay with CCRF-CEM, > 100 µM (inactive); in the assay on HCT-15, over 100 µM; with UACC-257 it was > 100 µM (inactive).

Regarding `N#CC1(C#N)NC(c2ccccc2)C(C#N)(C#N)NC1c1ccccc1` (stereo unspecified), the GI50 with RXF 393, with NCI/ADR-RES, with 786-0, in the assay on SK-MEL-28, in the assay with COLO 205 and with SK-OV-3 was > 100 µM (inactive) in each case. In addition, the GI50 in the assay on SF-539 is > 100 µM (inactive); in the assay on Malme-3M, > 100 µM (inactive); in the assay on K562, > 100 µM (inactive); in the assay on MDA-MB-435 it was > 100 µM (inactive); in the assay on UACC-62 it was > 100 µM (inactive); in the assay on NCI-H522, 27.4 µM (inactive). For the same compound, the GI50 with TK-10 is > 100 µM (inactive); in the assay on HOP-62, > 100 µM (inactive); in the assay on RPMI-8226, > 100 µM (inactive); in the assay with HL-60 it was 41.1 µM (inactive); in the assay on CCRF-CEM it was > 100 µM (inactive); with HCT-15, over 100 µM. Moreover, in the assay on UACC-257, the GI50 is > 100 µM (inactive).

For `COc1ccc2c(c1)OCc1c-2oc2ccccc2c1=O`, the GI50 in the assay on NCI/ADR-RES is > 100 µM (inactive); in the assay with 786-0 it was 45.7 µM (inactive); in the assay with COLO 205, > 100 µM (inactive); in the assay on SK-OV-3, 47.5 µM (inactive); in the assay on SF-539, 40.1 µM (inactive); with Malme-3M, > 100 µM (inactive). For the same compound, the GI50 is > 100 µM (inactive) in the assay on K562; > 100 µM (inactive) with MDA-MB-435; > 100 µM (inactive) in the assay on UACC-62; > 100 µM (inactive) in the assay on NCI-H522; > 100 µM (inactive) with TK-10; 53.7 µM (inactive) with HOP-62. Further, the GI50 in the assay on RPMI-8226 is > 100 µM (inactive); in the assay on CCRF-CEM, > 100 µM (inactive); in the assay on SR it was > 100 µM (inactive); with HCT-15 it was over 100 µM; in the assay with UACC-257, > 100 µM (inactive).

Take `CCCCCC/C=C\CCCCCCCCCc1c(O)c(OC)cc(O)c1CN(C)C`: the GI50 was 5.89 µM (inactive) in the assay on NCI/ADR-RES; 1.7 µM (inactive) in the assay with 786-0; 13.2 µM (inactive) with SK-MEL-28; 1.92 µM (inactive) in the assay with COLO 205; 14.9 µM (inactive) with SK-OV-3; 5.3 µM (inactive) with SF-539. For the same compound, the GI50 was 1.73 µM (inactive) in the assay on K562; 6.64 µM (inactive) with MDA-MB-435; 10.6 µM (inactive) in the assay with UACC-62; 1.64 µM (inactive) with NCI-H522; 14.6 µM (inactive) with TK-10; 12.8 µM (inactive) in the assay on HOP-62. For the same compound, the GI50 in the assay on RPMI-8226 was 2.44 µM (inactive); in the assay on HL-60, 1.6 µM (inactive); in the assay on CCRF-CEM, 0.887 µM (active); in the assay on SR, 0.692 µM (active); in the assay with HCT-15, 3.01 µM; in the assay with UACC-257, 11.4 µM (inactive).

As for `O=C1C=C(C2=CC(=O)C(=O)c3ccccc32)c2ccccc2C1=O`, the GI50 was 10.9 µM (inactive) in the assay on RXF 393; 23.2 µM (inactive) in the assay on NCI/ADR-RES; 13 µM (inactive) in the assay on 786-0; 4.26 µM (inactive) in the assay with SK-MEL-28; 18 µM (inactive) with COLO 205; 44.1 µM (inactive) in the assay on SK-OV-3. Further, the GI50 with SF-539 is 19.4 µM (inactive); with Malme-3M, 3.44 µM (inactive); with K562 it was 3.3 µM (inactive); with MDA-MB-435, 1.93 µM (inactive); with UACC-62 it was 5.37 µM (inactive); with NCI-H522, 2.76 µM (inactive). Besides, the GI50 with TK-10 is 7.46 µM (inactive); with HOP-62 it was 24.2 µM (inactive); in the assay with RPMI-8226, 6.17 µM (inactive); in the assay with HL-60, 3.03 µM (inactive); in the assay on CCRF-CEM it was 1.98 µM (inactive); in the assay with HCT-15 it was 11.8 µM. In the assay with UACC-257, the GI50 was 6.24 µM (inactive).

Consider `Nc1ccc(Nc2cc(=O)[nH]c(=O)[nH]2)cc1Cl`, for which the GI50 in the assay on NCI/ADR-RES, in the assay with 786-0, in the assay with SK-MEL-28, with COLO 205, in the assay on SK-OV-3 and in the assay with SF-539 was > 100 µM (inactive) in each case. Besides, the GI50 in the assay on Malme-3M, in the assay with K562, in the assay on MDA-MB-435, with UACC-62, in the assay with NCI-H522 and with TK-10 was > 100 µM (inactive) throughout. The GI50 in the assay on RPMI-8226 is > 100 µM (inactive); with HL-60, > 100 µM (inactive); with CCRF-CEM it was > 100 µM (inactive); in the assay on SR, > 100 µM (inactive); in the assay on HCT-15, over 100 µM; with UACC-257, > 100 µM (inactive).

`Cc1cc(C)c2c(c1)C(=O)C1(C2)Cc2c(ccc(C)c2C)C1=O` (stereo unspecified): the GI50 was > 100 µM (inactive) in the assay with RXF 393; > 100 µM (inactive) with NCI/ADR-RES; > 100 µM (inactive) in the assay on 786-0; > 100 µM (inactive) with SK-MEL-28; > 100 µM (inactive) in the assay on COLO 205; 85.5 µM (inactive) in the assay on SF-539. The GI50 in the assay on Malme-3M was 22.3 µM (inactive); with K562, > 100 µM (inactive); in the assay with MDA-MB-435, > 100 µM (inactive); with UACC-62, > 100 µM (inactive); in the assay with NCI-H522, 43.8 µM (inactive); with TK-10 it was > 100 µM (inactive). The GI50 in the assay on RPMI-8226 was > 100 µM (inactive); with HL-60 it was > 100 µM (inactive); in the assay on CCRF-CEM, > 100 µM (inactive); in the assay on SR, > 100 µM (inactive); in the assay with HCT-15, over 100 µM; in the assay with UACC-257, > 100 µM (inactive).

Consider `CCOP(=O)(OCC)C(Cc1ccc(Cl)cc1)NS(=O)(=O)c1ccc(C)cc1` (stereo unspecified), for which the GI50 with RXF 393, with NCI/ADR-RES, with 786-0, with SK-MEL-28, with COLO 205 and with SK-OV-3 was > 100 µM (inactive) throughout. Also, the GI50 with SF-539 is > 100 µM (inactive); with Malme-3M it was > 100 µM (inactive); in the assay with K562, > 100 µM (inactive); with MDA-MB-435 it was > 100 µM (inactive); with UACC-62, > 100 µM (inactive); in the assay on NCI-H522, 67.9 µM (inactive). Moreover, the GI50 with TK-10 was > 100 µM (inactive); with HOP-62 it was > 100 µM (inactive); with RPMI-8226 it was 98.9 µM (inactive); with HL-60, > 100 µM (inactive); with CCRF-CEM it was > 100 µM (inactive); in the assay on HCT-15 it was over 100 µM. Further, in the assay with UACC-257, the GI50 is 35.5 µM (inactive).

For `C=C1CCC([N+](=O)[O-])[C@](C)(N=O)CC[C@@H]2C1CC2(C)C` (stereo partly specified), the GI50 in the assay on NCI/ADR-RES is 22.8 µM (inactive); in the assay with 786-0, 20.6 µM (inactive); in the assay with SK-MEL-28, > 10 µM (inactive); in the assay on COLO 205 it was 28.1 µM (inactive); in the assay with SK-OV-3, 57.7 µM (inactive); with Malme-3M, 22 µM (inactive). For the same compound, the GI50 is 17.3 µM (inactive) in the assay on K562; > 10 µM (inactive) in the assay on MDA-MB-435; > 10 µM (inactive) in the assay with UACC-62; 19.4 µM (inactive) with NCI-H522; 28.6 µM (inactive) with TK-10; 38.3 µM (inactive) with HOP-62. In addition, the GI50 in the assay on RPMI-8226 was 26 µM (inactive); in the assay with HL-60 it was 5.43 µM (inactive); with CCRF-CEM, 6.62 µM (inactive); with SR it was 8.57 µM (inactive); with HCT-15, 22.8 µM; in the assay with UACC-257, 23 µM (inactive).

For `CCC(=O)NCCc1c2c3c(ccnc3c3ncsc13)-c1ccccc1N2` [KUANONIAMINE C], the GI50 is 4.16 µM (inactive) with RXF 393; 4.99 µM (inactive) in the assay with NCI/ADR-RES; 0.791 µM (active) with 786-0; 2.56 µM (inactive) in the assay with SK-MEL-28; 1.45 µM (inactive) with COLO 205; 12.2 µM (inactive) in the assay on SK-OV-3. For the same compound, the GI50 in the assay on SF-539 was 1.06 µM (active); in the assay with Malme-3M it was 2.62 µM (inactive); in the assay on K562, 1.53 µM (inactive); in the assay with MDA-MB-435, 2.26 µM (inactive); with UACC-62, 1.63 µM (inactive); with NCI-H522, 2.62 µM (inactive). For the same compound, the GI50 in the assay with TK-10 was 6.32 µM (inactive); in the assay with HOP-62 it was 2.94 µM (inactive); in the assay on RPMI-8226 it was 0.401 µM (active); with HL-60, 0.845 µM (active); with CCRF-CEM, 2.86 µM (inactive); in the assay with HCT-15, 2.51 µM. The GI50 in the assay on UACC-257 is 6 µM (inactive).

These data come from ChEMBL document CHEMBL1201862, “PubChem BioAssay data set” (2004).
